Test results taken from ChEMBL document CHEMBL5584309, “Discovery of Novel Mcl-1 Inhibitors with a 3-Substituted-1H-indole-1-yl Moiety Binding to the P1-P3 Pockets to Induce Apoptosis in Acute Myeloid Leukemia Cells” (J Med Chem, 2024).

Biological target: Induced myeloid leukemia cell differentiation protein Mcl-1 (Homo sapiens, UniProt Q07820)
Assay: Binding affinity to Mcl-1 (unknown origin) pre-incubated for 30 mins followed by addition FAM-peptide further incubated for 20 mins by fluorescence polarization-based binding assay
Conditions: read-out: Ki

Sequence of Induced myeloid leukemia cell differentiation protein Mcl-1 (Q07820 whole entry): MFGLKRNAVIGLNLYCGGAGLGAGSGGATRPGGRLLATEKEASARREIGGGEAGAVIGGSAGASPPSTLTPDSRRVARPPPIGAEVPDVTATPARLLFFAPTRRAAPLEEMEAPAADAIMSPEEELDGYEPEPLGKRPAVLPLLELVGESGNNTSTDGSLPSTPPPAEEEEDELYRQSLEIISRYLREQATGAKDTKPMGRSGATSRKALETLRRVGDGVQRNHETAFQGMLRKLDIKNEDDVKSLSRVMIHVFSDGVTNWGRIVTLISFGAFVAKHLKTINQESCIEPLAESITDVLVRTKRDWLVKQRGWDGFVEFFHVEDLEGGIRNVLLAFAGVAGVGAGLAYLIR

| Ki | SMILES |
| --- | --- |
| 370 nM | COc1cccc(OCc2c(-c3cccc4c(CCCOc5cc(C)c(Cl)c(C)c5)c(C(=O)O)[nH]c34)c(C(=O)NCC3CC3)nn2C)c1 |
| 43 nM | Cc1cc(OCCCc2c(C(=O)O)n(CCN3CCOCC3)c3c(-c4ccccc4Cn4cc(CCNC(=O)c5c(C)cccc5F)c5ccccc54)cccc23)cc(C)c1Cl |
| 840 nM | COc1ccc(OCc2c(-c3cccc4c(CCCOc5cc(C)c(Cl)c(C)c5)c(C(=O)O)[nH]c34)c(C(=O)NC3CCOCC3)nn2C)cc1 |
| 58 nM | Cc1cc(OCCCc2c(C(=O)O)n(CCN3CCOCC3)c3c(-c4ccccc4Cn4cc(CCNC(=O)c5ccoc5)c5ccccc54)cccc23)cc(C)c1Cl |
| 390 nM | COc1ccc(OCc2c(-c3cccc4c(CCCOc5cc(C)c(Cl)c(C)c5)c(C(=O)O)[nH]c34)c(C(=O)Nc3ccccc3F)nn2C)cc1 |
| 98 nM | Cc1cc(OCCCc2c(C(=O)O)n(CCN3CCOCC3)c3c(-c4ccccc4Cn4cc(CCNC(=O)CCC(F)(F)F)c5ccccc54)cccc23)cc(C)c1Cl |
| 56 nM | Cc1cc(OCCCc2c(C(=O)O)n(CCN3CCOCC3)c3c(-c4ccccc4Cn4cc(CCNC(=O)c5ccccc5C(F)(F)F)c5ccccc54)cccc23)cc(C)c1Cl |

Second part, the molecule before the results:

| SMILES | Ki |
| --- | --- |
| COc1ccc(OCc2c(-c3cccc4c(CCCOc5cc(C)c(Cl)c(C)c5)c(C(=O)O)[nH]c34)c(C(=O)NCC3CCOCC3)nn2C)cc1 | 490 nM |
| Cc1cc(OCCCc2c(C(=O)O)[nH]c3c(-c4c(C(=O)NCC5CC5)nn(C)c4Cn4cc(C)c5ccccc54)cccc23)cc(C)c1Cl | 100 nM |
| Cc1ccccc1C(=O)NCCc1cn(Cc2ccccc2-c2cccc3c(CCCOc4cc(C)c(Cl)c(C)c4)c(C(=O)O)n(CCN4CCOCC4)c23)c2ccccc12 | 59 nM |
| Cc1ccc2c(ccn2Cc2ccccc2-c2cccc3c(CCCOc4cc(C)c(Cl)c(C)c4)c(C(=O)O)n(CCN4CCOCC4)c23)c1 | 160 nM |
| Cc1cc(OCCCc2c(C(=O)O)n(CCN3CCOCC3)c3c(-c4ccccc4Cn4cc(CCNC(=O)CC(F)(F)F)c5ccccc54)cccc23)cc(C)c1Cl | 60 nM |
| Cc1cc(OCCCc2c(C(=O)O)n(CCN3CCOCC3)c3c(-c4ccccc4Cn4cc(CCNC(=O)c5ccncc5F)c5ccccc54)cccc23)cc(C)c1Cl | 55 nM |
| Cc1cc(OCCCc2c(C(=O)O)[nH]c3c(-c4ccccc4Cn4ccc5ccccc54)cccc23)cc(C)c1Cl | 240 nM |
| Cc1cc(OCCCc2c(C(=O)O)n(CCN3CCOCC3)c3c(-c4ccccc4Cn4cc(CCNC(=O)c5ccc(OC(F)(F)F)cc5)c5ccccc54)cccc23)cc(C)c1Cl | 29 nM |
| Cc1cc(OCCCc2c(C(=O)O)n(CCN3CCOCC3)c3c(-c4ccccc4Cn4cc(CCNC(=O)c5ccc(C=O)cc5)c5ccccc54)cccc23)cc(C)c1Cl | 27 nM |
| Cc1cc(OCCCc2c(C(=O)O)[nH]c3c(-c4ccccc4CN(C)c4ccccc4)cccc23)cc(C)c1Cl | 650 nM |
| Cc1cc(OCCCc2c(C(=O)O)n(CCN3CCOCC3)c3c(-c4ccccc4Cn4cc(CCNC(=O)c5cccc(Br)c5)c5ccccc54)cccc23)cc(C)c1Cl | 87 nM |
| Cc1cc(OCCCc2c(C(=O)O)[nH]c3c(-c4c(C(=O)NCC5CC5)nn(C)c4Cn4cc(CCNC(=O)OC(C)(C)C)c5ccccc54)cccc23)cc(C)c1Cl | 150 nM |
| COc1ccc2c(ccn2Cc2ccccc2-c2cccc3c(CCCOc4cc(C)c(Cl)c(C)c4)c(C(=O)O)n(CCN4CCOCC4)c23)c1 | 150 nM |

Tested on: HL-60
Assay: Antiproliferative activity against human HL-60 cells assessed as growth inhibition measured after 72 hrs by CCK-8 assay
Assay type: functional, cell-based
Conditions: HL-60, 72 h

| IC50 | SMILES |
| --- | --- |
| > 50 µM | COc1cccc(OCc2c(-c3cccc4c(CCCOc5cc(C)c(Cl)c(C)c5)c(C(=O)O)[nH]c34)c(C(=O)NCC3CC3)nn2C)c1 |
| 14.2 µM | Cc1cc(OCCCc2c(C(=O)O)n(CCN3CCOCC3)c3c(-c4ccccc4Cn4cc(CCNC(=O)c5c(C)cccc5F)c5ccccc54)cccc23)cc(C)c1Cl |
| 21.1 µM | COc1ccc(OCc2c(-c3cccc4c(CCCOc5cc(C)c(Cl)c(C)c5)c(C(=O)O)[nH]c34)c(C(=O)NC3CCOCC3)nn2C)cc1 |
| 29.9 µM | Cc1cc(OCCCc2c(C(=O)O)n(CCN3CCOCC3)c3c(-c4ccccc4Cn4cc(CCNC(=O)c5ccoc5)c5ccccc54)cccc23)cc(C)c1Cl |
| 28.3 µM | COc1ccc(OCc2c(-c3cccc4c(CCCOc5cc(C)c(Cl)c(C)c5)c(C(=O)O)[nH]c34)c(C(=O)Nc3ccccc3F)nn2C)cc1 |
| 12.8 µM | Cc1cc(OCCCc2c(C(=O)O)n(CCN3CCOCC3)c3c(-c4ccccc4Cn4cc(CCNC(=O)CCC(F)(F)F)c5ccccc54)cccc23)cc(C)c1Cl |
| 14.3 µM | Cc1cc(OCCCc2c(C(=O)O)n(CCN3CCOCC3)c3c(-c4ccccc4Cn4cc(CCNC(=O)c5ccccc5C(F)(F)F)c5ccccc54)cccc23)cc(C)c1Cl |

Continued, molecule first:

| SMILES | IC50 |
| --- | --- |
| Cc1cc(OCCCc2c(C(=O)O)[nH]c3ccccc23)cc(C)c1Cl | > 50 µM |
| COc1ccc(OCc2c(-c3cccc4c(CCCOc5cc(C)c(Cl)c(C)c5)c(C(=O)O)[nH]c34)c(C(=O)NCC3CCOCC3)nn2C)cc1 | 35 µM |
| Cc1cc(OCCCc2c(C(=O)O)[nH]c3c(-c4c(C(=O)NCC5CC5)nn(C)c4Cn4cc(C)c5ccccc54)cccc23)cc(C)c1Cl | 10.5 µM |
| Cc1ccccc1C(=O)NCCc1cn(Cc2ccccc2-c2cccc3c(CCCOc4cc(C)c(Cl)c(C)c4)c(C(=O)O)n(CCN4CCOCC4)c23)c2ccccc12 | 10.1 µM |
| Cc1ccc2c(ccn2Cc2ccccc2-c2cccc3c(CCCOc4cc(C)c(Cl)c(C)c4)c(C(=O)O)n(CCN4CCOCC4)c23)c1 | 39.1 µM |
| Cc1cc(OCCCc2c(C(=O)O)n(CCN3CCOCC3)c3c(-c4ccccc4Cn4cc(CCNC(=O)CC(F)(F)F)c5ccccc54)cccc23)cc(C)c1Cl | 18.3 µM |
| Cc1cc(OCCCc2c(C(=O)O)n(CCN3CCOCC3)c3c(-c4ccccc4Cn4cc(CCNC(=O)c5ccncc5F)c5ccccc54)cccc23)cc(C)c1Cl | 12.6 µM |
| Cc1cc(OCCCc2c(C(=O)O)[nH]c3c(-c4ccccc4Cn4ccc5ccccc54)cccc23)cc(C)c1Cl | 44.1 µM |
| Cc1cc(OCCCc2c(C(=O)O)n(CCN3CCOCC3)c3c(-c4ccccc4Cn4cc(CCNC(=O)c5ccc(OC(F)(F)F)cc5)c5ccccc54)cccc23)cc(C)c1Cl | 7.92 µM |
| Cc1cc(OCCCc2c(C(=O)O)n(CCN3CCOCC3)c3c(-c4ccccc4Cn4cc(CCNC(=O)c5ccc(C=O)cc5)c5ccccc54)cccc23)cc(C)c1Cl | 35.1 µM |
| Cc1cc(OCCCc2c(C(=O)O)[nH]c3c(-c4ccccc4CN(C)c4ccccc4)cccc23)cc(C)c1Cl | 31.9 µM |
| Cc1cc(OCCCc2c(C(=O)O)n(CCN3CCOCC3)c3c(-c4ccccc4Cn4cc(CCNC(=O)c5cccc(Br)c5)c5ccccc54)cccc23)cc(C)c1Cl | 12.3 µM |
| Cc1cc(OCCCc2c(C(=O)O)[nH]c3c(-c4c(C(=O)NCC5CC5)nn(C)c4Cn4cc(CCNC(=O)OC(C)(C)C)c5ccccc54)cccc23)cc(C)c1Cl | 19.3 µM |
| COc1ccc2c(ccn2Cc2ccccc2-c2cccc3c(CCCOc4cc(C)c(Cl)c(C)c4)c(C(=O)O)n(CCN4CCOCC4)c23)c1 | 16.1 µM |

Biological target: Apoptosis regulator Bcl-2 (Homo sapiens, UniProt P10415)
Sequence (P10415 whole entry): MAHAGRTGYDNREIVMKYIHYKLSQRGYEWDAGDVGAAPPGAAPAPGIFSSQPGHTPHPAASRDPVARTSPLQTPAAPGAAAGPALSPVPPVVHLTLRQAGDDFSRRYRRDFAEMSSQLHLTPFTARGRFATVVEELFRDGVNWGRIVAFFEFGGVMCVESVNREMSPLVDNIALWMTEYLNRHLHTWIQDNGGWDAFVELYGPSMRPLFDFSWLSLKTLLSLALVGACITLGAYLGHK
Assay: Binding affinity to Bcl-2 (unknown origin) pre-incubated for 30 mins followed by addition FAM-peptide further incubated for 20 mins by fluorescence polarization-based binding assay
Conditions: not given

| SMILES | IC50 |
| --- | --- |
| CC(C)=CCC[C@]1(C)C=Cc2c(O)c3c(c(CC=C(C)C)c2O1)O[C@]12C(=C[C@@H]4C[C@H]1C(C)(C)O[C@@]2(C/C=C(/C)C(=O)O)C4=O)C3=O [GAMBOGIC ACID] | 160 nM |
| Cc1cc(OCCCc2c(C(=O)O)n(CCN3CCOCC3)c3c(-c4ccccc4Cn4cc(CCNC(=O)c5ccc(OC(F)(F)F)cc5)c5ccccc54)cccc23)cc(C)c1Cl | > 100000 nM |

Biological target: Bcl-2-like protein 1 (Homo sapiens, UniProt Q07817)
Sequence (Q07817 whole entry): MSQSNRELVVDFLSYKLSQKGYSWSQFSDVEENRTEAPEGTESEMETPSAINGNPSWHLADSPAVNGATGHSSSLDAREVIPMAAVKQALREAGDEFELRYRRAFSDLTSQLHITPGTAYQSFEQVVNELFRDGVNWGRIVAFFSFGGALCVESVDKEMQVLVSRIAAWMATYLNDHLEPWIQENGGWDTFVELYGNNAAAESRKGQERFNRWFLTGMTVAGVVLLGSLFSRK
Assay: Binding affinity to Bcl-xL (unknown origin) pre-incubated for 30 mins followed by addition FAM-peptide further incubated for 20 mins by fluorescence polarization-based binding assay
Conditions: not given

| SMILES | IC50 |
| --- | --- |
| CC(C)=CCC[C@]1(C)C=Cc2c(O)c3c(c(CC=C(C)C)c2O1)O[C@]12C(=C[C@@H]4C[C@H]1C(C)(C)O[C@@]2(C/C=C(/C)C(=O)O)C4=O)C3=O [GAMBOGIC ACID] | 500 nM |
| Cc1cc(OCCCc2c(C(=O)O)n(CCN3CCOCC3)c3c(-c4ccccc4Cn4cc(CCNC(=O)c5ccc(OC(F)(F)F)cc5)c5ccccc54)cccc23)cc(C)c1Cl | > 100000 nM |

Biological target: T1, Bcl-2-related protein A1 (Homo sapiens, UniProt Q16548)
T1 sequence (Q16548 whole entry): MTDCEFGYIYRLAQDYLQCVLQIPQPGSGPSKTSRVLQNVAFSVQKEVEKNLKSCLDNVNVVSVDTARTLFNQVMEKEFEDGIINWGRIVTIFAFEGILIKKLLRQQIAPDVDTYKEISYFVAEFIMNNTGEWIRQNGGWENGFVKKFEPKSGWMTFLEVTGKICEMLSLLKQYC
Assay: Binding affinity to Bfl-1 (unknown origin) pre-incubated for 30 mins followed by addition FAM-peptide further incubated for 20 mins by fluorescence polarization-based binding assay
Conditions: not given

| SMILES | IC50 |
| --- | --- |
| CC(C)=CCC[C@]1(C)C=Cc2c(O)c3c(c(CC=C(C)C)c2O1)O[C@]12C(=C[C@@H]4C[C@H]1C(C)(C)O[C@@]2(C/C=C(/C)C(=O)O)C4=O)C3=O [GAMBOGIC ACID] | 500 nM |
| Cc1cc(OCCCc2c(C(=O)O)n(CCN3CCOCC3)c3c(-c4ccccc4Cn4cc(CCNC(=O)c5ccc(OC(F)(F)F)cc5)c5ccccc54)cccc23)cc(C)c1Cl | > 10000 nM |

Tested on: not listed separately
Assay: Metabolic stability in rat liver microsomes assessed as half life by LC-MS/MS analysis
Assay type: ADME, Microsome
Conditions: liver microsomes

| SMILES | half-life |
| --- | --- |
| O=C(O)Cc1ccccc1Nc1c(Cl)cccc1Cl [DICLOFENAC] | 11.7 min |
